Results taken from US20250354979A1, “DRUG EVALUATION METHOD, REAGENT, AND KIT” (FUJIFILM Corporation, priority 2023, published 2025).

Tests used:
[1] = tested on: human iPS cell-derived myocardial cells; test: Heart rate of myocardial cells by MEA, serum-free culture medium with isoproterenol and carbachol added; type: cell-based; settings: serum-free culture medium with 1 μmol/L isoproterenol and 3 μmol/L carbachol; cumulative drug concentrations, 20 minutes after addition; vs medium control
Experimental: (§1) Example 4: Method and results of evaluating increase in heart rate by muscarinic receptor inhibitor (atropine) using serum-free culture medium to which adrenergic receptor agonist (isoproterenol) and muscarinic receptor agonist (carbachol) are added Human iPS cell-derived myocardial cells (iCell myocardial cells 2.0, manufactured by FUJIFILM Cellular Dynamics, Inc.) in a frozen state were thawed, suspended in a thawing culture medium (iCell myocardial cell thawing culture medium, manufactured by FUJIFILM Cellular Dynamics, Inc.), and then seeded at a cell density of 50,000 cells per well on a MEA plate (Cyto View MEA 48, manufactured by Axion BioSystems, Inc.). The seeding density of myocardial cells in the vicinity of the electrode was 2,725 cells/mm^2. After the plate was allowed to stand in a CO2 incubator for several hours, a maintenance culture medium (iCell myocardial cell maintenance culture medium, manufactured by FUJIFILM Cellular Dynamics, Inc.) containing serum was added, and the myocardial cells were cultured in the CO2 incubator for about one week. The culture medium was exchanged with a serum-free culture medium (a myocardial cell serum-free assay culture medium, manufactured by FUJIFILM Cellular Dynamics, Inc.) on the day before the measurement.
(§2) On the day of measurement, the MEA plate on which human iPS cell-derived myocardial cells were cultured was placed in an MEA system (Maestro Pro, manufactured by Axion BioSystems, Inc.), 1 μmol/L of isoproterenol (manufactured by Tokyo Chemical Industry Co., Ltd.) and 3 μmol/L of carbachol (manufactured by Tokyo Chemical Industry Co., Ltd.) were added to the culture medium, and then the extracellular potential was measured after 20 minutes from the addition (medium control, atropine concentration: 0 μmol/L). Subsequently, 0.01 μmol/L of atropine (manufactured by Tokyo Chemical Industry Co., Ltd.) was added to the MEA plate, and then the extracellular potential was measured after 20 minutes from the addition. Similarly, atropine was added to give concentrations of 0.1 μmol/L and 1 μmol/L, and then the extracellular potential was measured at each concentration.
From the measurement results of the extracellular potential, the interval between sharp peaks indicating depolarization of human iPS cell-derived myocardial cells was taken as the beating time (sec), and the heart rate (/min)=60/beating time (sec) was calculated. The addition of atropine was confirmed to result in an increase in heart rate of up to 51% (FIG. 7).
In the same manner as in Example 4, evaluation was carried out using an MEA plate on which human iPS cell-derived myocardial cells were cultured. Specifically, the same operations as in Example 4 were carried out except that atropine added in Example 4 was changed to tiotropium (manufactured by Tokyo Chemical Industry Co., Ltd.) and the concentration of tiotropium added was 1 pmol/L, 10 pmol/L, 100 pmol/L, and 1,000 pmol/L.
In the same manner as in Example 4, evaluation was carried out using an MEA plate on which human iPS cell-derived myocardial cells were cultured. Specifically, the same operations as in Example 4 were carried out except that atropine added in Example 4 was changed to glycopyrronium (manufactured by Tokyo Chemical Industry Co., Ltd.) and the concentration of glycopyrronium added was 0.01 nmol/L, 0.1 nmol/L, 1 nmol/L, and 10 nmol/L.
In the same manner as in Example 4, evaluation was carried out using an MEA plate on which human iPS cell-derived myocardial cells were cultured. Specifically, the same operations as in Example 4 were carried out except that the atropine added in Example 4 was changed to propranolol (manufactured by FUJIFILM Wako Pure Chemical Corporation) and the concentration of propranolol added was 0.1 nmol/L, 1 nmol/L, 10 nmol/L, and 100 nmol/L.
In the same manner as in Example 4, evaluation was carried out using an MEA plate on which human iPS cell-derived myocardial cells were cultured. […]

[2] = tested on: human iPS cell-derived myocardial cells; test: Heart rate of myocardial cells by MEA, serum-free culture medium with isoproterenol added; type: cell-based; settings: serum-free culture medium with 1 μmol/L isoproterenol; cumulative drug concentrations, 20 minutes after addition; vs medium control
Experimental: as §1, with “1:” for “4:”, “decrease” for “increase”, “agonist (carbachol)” for “inhibitor (atropine)”, “is” for “and muscarinic receptor agonist (carbachol) are”, “2,671” for “2,725”, “The culture medium was exchanged with a serum-free culture medium (a myocardial cell serum-free assay culture medium, manufactured by FUJIFILM Cellular Dynamics, Inc.) on the day before the measurement.” left out
as §2, with “Ltd.) was” for “Ltd.) and 3 μmol/L of carbachol (manufactured by Tokyo Chemical Industry Co., Ltd.) were”, “control, carbachol” for “control, atropine”, “of carbachol” for “of atropine”, “Similarly, carbachol” for “Similarly, atropine”, “0.1 μmol/L, 1 μmol/L,” for “0.1 μmol/L”, “and 10” for “and 1”
From the measurement results of the extracellular potential, the interval between sharp peaks indicating depolarization of human iPS cell-derived myocardial cells was taken as the beating time (sec), and the heart rate (/min)=60/ beating time (sec) was calculated. […]

CC(=O)Oc1ccccc1C(=O)O [aspirin]
increase in heart rate [1]: at most 17%

CC(C)NCC(O)COc1ccc(CC(N)=O)cc1 (stereo not shown) [atenolol]
decrease in heart rate [1]: up to 22%

CC1OC2(CS1)CN1CCC2CC1 (stereo not shown) [cevimeline]
decrease in heart rate [2]: up to 26%

C[N+]1(C)CCC(OC(=O)C(O)(c2ccccc2)C2CCCC2)C1 (stereo not shown) [glycopyrronium]
increase in heart rate [1]: up to 36%

CC[C@@H]1C(=O)OC[C@@H]1Cc1cncn1C [pilocarpine]
decrease in heart rate [2]: up to 15%

CC(C)NCC(O)COc1cccc2ccccc12 (stereo not shown) [propranolol]
decrease in heart rate [1]: up to 28%

C[N+]1(C)[C@@H]2C[C@@H](OC(=O)C(O)(c3cccs3)c3cccs3)C[C@H]1[C@@H]1O[C@@H]12 [tiotropium]
increase in heart rate [1]: up to 36%
